Values of other authors in patent US20180344749A1, “CONTROLLED RELEASE FORMULATIONS OF SALICLATE-RELEASING ACTIVES” (Cogwellin, LLC, priority 2015, published 2018).

Assays:
acetyltransferase p300 = acetyltransferase p300 (Homo sapiens, UniProt Q09472); conditions: for tau levels: enhance tau turnover
[1] = test system: PS19 transgenic mouse model of FTD; conditions: administration after disease onset
[2] = at anti-inflammatory doses
[3] = in terms of salicylic acid equivalents
[4] = not given; remark: listed apart in the source
tau acetylation = conditions: aspirin rapidly loses its acetyl group

Sequence of acetyltransferase p300 (Q09472 whole entry): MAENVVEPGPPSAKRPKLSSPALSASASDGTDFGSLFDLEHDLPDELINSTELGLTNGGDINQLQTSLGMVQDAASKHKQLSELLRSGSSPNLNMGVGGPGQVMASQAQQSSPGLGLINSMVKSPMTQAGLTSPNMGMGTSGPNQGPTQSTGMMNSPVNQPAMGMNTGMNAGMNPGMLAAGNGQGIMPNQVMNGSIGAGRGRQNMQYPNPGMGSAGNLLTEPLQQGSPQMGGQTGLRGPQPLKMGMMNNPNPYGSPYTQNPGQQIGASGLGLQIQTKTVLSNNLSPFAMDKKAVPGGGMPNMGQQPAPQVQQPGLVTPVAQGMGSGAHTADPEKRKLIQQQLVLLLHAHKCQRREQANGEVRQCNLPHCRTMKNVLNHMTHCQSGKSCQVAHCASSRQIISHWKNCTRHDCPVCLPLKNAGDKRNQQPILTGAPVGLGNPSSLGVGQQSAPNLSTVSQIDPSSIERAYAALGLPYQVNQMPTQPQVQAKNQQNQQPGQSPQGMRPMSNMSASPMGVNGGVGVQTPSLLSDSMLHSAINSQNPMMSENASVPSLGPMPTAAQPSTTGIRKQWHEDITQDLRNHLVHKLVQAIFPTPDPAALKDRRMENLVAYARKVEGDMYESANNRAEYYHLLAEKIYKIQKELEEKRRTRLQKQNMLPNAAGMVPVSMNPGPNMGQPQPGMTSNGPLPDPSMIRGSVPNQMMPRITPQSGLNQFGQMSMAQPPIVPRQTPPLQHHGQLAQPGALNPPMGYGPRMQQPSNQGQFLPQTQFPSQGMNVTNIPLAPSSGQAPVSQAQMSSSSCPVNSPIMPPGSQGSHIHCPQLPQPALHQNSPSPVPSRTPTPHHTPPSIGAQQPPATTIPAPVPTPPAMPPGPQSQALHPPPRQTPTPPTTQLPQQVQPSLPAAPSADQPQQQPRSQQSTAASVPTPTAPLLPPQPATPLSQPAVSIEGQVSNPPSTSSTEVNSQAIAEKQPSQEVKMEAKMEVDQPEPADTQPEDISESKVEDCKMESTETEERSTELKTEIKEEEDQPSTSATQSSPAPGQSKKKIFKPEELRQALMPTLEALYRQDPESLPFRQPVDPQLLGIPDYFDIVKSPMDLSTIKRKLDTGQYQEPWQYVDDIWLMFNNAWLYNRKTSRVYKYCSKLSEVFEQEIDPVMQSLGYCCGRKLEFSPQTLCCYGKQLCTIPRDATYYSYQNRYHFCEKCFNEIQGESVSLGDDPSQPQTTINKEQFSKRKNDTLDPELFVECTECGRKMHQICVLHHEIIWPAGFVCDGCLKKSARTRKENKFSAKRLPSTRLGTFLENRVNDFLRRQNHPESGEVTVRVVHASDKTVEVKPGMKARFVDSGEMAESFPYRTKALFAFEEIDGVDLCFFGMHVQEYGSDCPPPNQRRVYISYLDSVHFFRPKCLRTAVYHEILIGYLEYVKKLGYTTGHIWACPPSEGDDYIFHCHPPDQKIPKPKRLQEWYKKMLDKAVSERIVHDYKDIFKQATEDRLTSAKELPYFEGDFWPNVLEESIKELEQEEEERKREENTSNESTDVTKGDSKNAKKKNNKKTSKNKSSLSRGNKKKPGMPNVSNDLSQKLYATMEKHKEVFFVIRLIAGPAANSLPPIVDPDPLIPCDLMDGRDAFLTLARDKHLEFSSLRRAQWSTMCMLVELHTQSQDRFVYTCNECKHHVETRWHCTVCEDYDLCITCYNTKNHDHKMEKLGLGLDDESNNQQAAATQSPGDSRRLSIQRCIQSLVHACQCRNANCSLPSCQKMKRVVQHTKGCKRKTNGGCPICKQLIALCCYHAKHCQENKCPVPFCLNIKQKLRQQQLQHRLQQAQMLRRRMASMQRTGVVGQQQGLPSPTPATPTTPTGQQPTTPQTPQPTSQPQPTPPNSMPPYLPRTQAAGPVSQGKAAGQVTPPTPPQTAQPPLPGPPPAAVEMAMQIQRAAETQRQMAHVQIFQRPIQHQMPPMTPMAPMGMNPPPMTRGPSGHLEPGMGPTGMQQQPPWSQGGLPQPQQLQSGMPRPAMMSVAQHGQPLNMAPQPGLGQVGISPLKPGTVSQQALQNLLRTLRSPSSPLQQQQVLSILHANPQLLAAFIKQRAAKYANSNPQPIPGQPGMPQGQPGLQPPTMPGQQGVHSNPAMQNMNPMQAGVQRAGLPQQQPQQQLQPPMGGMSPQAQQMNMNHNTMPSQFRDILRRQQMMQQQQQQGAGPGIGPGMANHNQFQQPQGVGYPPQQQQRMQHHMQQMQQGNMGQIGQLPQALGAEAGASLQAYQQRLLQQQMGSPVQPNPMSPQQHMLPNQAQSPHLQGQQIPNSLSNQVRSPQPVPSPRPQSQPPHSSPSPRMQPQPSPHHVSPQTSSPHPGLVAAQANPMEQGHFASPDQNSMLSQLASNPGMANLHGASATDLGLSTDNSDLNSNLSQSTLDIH

Compound | acetyltransferase p300-induced tau acetylation (acetyltransferase p300) | tau levels (acetyltransferase p300) | hippocampal atrophy [1] | levels of total tau and tau acetylated at K174 [1] | p300 activity [1] | tau-induced memory deficits [1] | brain penetration (in vivo) | stability of salicylate levels after salsalate (over 8 hours) | gastrointestinal bleeding and gastric erosions compared with aspirin [2] | salicylic acid obtained relative to an equivalent dose of aspirin (relative AUC) [3] | solubility in the pH of the small intestine ([4]; small intestine pH) | behaviour in the pH of the stomach [4] | tau acetylation in cell cultures (tau acetylation)
O=C(O)c1ccccc1O [salicylate, salicylic acid] | inhibited | reduce tau levels |  |  |  |  |  |  |  |  |  |  | 
O=C(Oc1ccccc1C(=O)O)c1ccccc1O [salsalate] | inhibited | reduce tau levels | prevented | lowered | inhibited p300 activity | rescued | penetrates the brain | relatively stable salicylate levels over 8 hours | significantly less | approximately 84% | soluble | undergoes particulate dispersion | 
CC(=O)Oc1ccccc1C(=O)O [aspirin, acetylsalicylic acid] |  |  |  |  |  |  |  |  |  |  |  | soluble | boost tau acetylation
